# From patent US12180207B2 (ARRAY BIOPHARMA INC., priority 2018, dated 2024)
# Legend:
# [1] = target: phosphorylated FGFR3 (SEQ ID NO: 5, amino acids 449 to 759) (Homo sapiens (Human), UniProt P22607); experiment: FGFR enzyme binding assay (HTRF tracer displacement), FGFR3; conditions: 5 nM phosphorylated FGFR3, average of multiple determinations if made
# Summary of the method: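 Compounds were tested for displacement of a tracer from human FGFR kinase in a time-resolved FRET binding format. After 60 minutes at 22° C, signal was read at two wavelengths and converted to percent of control, normalised between untreated wells and 1 μM reference inhibitor.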
# [2] = target: recombinant human FGFR3 (amino acids R397-T806) (Homo sapiens (Human), UniProt P22607); experiment: FGFR3 enzyme activity assay (LanthaScreen TR-FRET); type: biochemical; conditions: 25 μM ATP, 10 min incubation at 22° C., average of multiple determinations if made, read-out: FGFR3 Enz FRET IC50
# Summary of the method: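 GST-HIS6-tagged human FGFR3 (R397-T806) was reacted with 100 nM Alexa Fluor 647-Poly-GT substrate and 25 μM ATP plus compound in HEPES/MgCl2/Triton buffer, pH 7.5, 2% DMSO, for 10 min at 22 °C.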
# [3] = target: FGFR1 (SEQ ID NO: 1, amino acids 458-765) (Homo sapiens (Human), UniProt P11362); experiment: LC/MS FGFR1 kobs assay (covalent protein modification); type: binding; conditions: 500 nM FGFR1, 3 μM compound
# Summary of the method: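 Covalent labeling of FGFR1 kinase domain (aa 458-765) tracked over time by intact-protein LC/MS after formic acid quench. kobs derived by fitting DMSO-normalized percent unmodified FGFR1 to an exponential decay model.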
# [4] = target: HEK-293 cells transfected with dox-inducible human wild type FGFR3 (Homo sapiens (Human), UniProt P22607); experiment: FGFR3 pERK cell assay; type: cell-based; conditions: HEK-293 dox-inducible FGFR3, 1 hour compound, 100 ng/ml FGF-acidic; maximum concentration 5 μM
# Summary of the method: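 Doxycycline-induced cells preincubated 1 h at 37 °C with compound (1:3 dilutions, top 5 μM final), then stimulated 5 min with 100 ng/ml FGF-acidic. Lysate phospho-ERK1/2 measured by MSD sandwich assay; IC50 at 50 POC from 4-parameter fit, normalised to no-compound and control-compound wells.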
# Sequence of recombinant human FGFR3 (amino acids R397-T806) (P22607 397-806): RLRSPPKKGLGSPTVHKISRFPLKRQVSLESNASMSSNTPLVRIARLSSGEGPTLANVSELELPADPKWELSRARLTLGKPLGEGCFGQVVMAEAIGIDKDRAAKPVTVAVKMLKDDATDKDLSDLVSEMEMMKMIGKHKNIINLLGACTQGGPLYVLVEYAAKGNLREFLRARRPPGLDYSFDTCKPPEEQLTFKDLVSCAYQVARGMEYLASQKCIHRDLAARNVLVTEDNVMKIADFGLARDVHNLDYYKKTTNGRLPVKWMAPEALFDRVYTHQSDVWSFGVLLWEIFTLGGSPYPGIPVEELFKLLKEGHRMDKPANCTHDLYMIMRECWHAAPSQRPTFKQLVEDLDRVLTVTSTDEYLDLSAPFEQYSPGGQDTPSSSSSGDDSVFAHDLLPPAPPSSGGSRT
# Sequence of phosphorylated FGFR3 (SEQ ID NO: 5, amino acids 449 to 759) (P22607 449-759): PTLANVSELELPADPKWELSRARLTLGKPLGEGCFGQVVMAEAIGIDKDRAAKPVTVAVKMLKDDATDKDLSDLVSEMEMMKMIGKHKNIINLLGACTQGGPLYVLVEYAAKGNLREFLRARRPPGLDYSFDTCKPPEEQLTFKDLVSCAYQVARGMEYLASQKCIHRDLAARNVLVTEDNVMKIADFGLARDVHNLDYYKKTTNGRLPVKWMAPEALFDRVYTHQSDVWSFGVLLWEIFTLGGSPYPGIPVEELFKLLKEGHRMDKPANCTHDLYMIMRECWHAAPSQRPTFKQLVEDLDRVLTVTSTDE
# Sequence of FGFR1 (SEQ ID NO: 1, amino acids 458-765) (P11362 458-765): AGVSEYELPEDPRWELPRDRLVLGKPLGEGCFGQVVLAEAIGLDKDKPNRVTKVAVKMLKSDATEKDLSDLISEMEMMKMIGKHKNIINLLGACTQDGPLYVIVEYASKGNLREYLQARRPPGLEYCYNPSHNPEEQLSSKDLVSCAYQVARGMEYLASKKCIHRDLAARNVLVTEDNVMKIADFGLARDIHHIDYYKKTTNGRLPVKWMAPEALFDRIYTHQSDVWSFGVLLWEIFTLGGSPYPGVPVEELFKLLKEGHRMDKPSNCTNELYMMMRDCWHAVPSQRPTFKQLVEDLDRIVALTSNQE
# Sequence of HEK-293 cells transfected with dox-inducible human wild type FGFR3 (P22607 23-806): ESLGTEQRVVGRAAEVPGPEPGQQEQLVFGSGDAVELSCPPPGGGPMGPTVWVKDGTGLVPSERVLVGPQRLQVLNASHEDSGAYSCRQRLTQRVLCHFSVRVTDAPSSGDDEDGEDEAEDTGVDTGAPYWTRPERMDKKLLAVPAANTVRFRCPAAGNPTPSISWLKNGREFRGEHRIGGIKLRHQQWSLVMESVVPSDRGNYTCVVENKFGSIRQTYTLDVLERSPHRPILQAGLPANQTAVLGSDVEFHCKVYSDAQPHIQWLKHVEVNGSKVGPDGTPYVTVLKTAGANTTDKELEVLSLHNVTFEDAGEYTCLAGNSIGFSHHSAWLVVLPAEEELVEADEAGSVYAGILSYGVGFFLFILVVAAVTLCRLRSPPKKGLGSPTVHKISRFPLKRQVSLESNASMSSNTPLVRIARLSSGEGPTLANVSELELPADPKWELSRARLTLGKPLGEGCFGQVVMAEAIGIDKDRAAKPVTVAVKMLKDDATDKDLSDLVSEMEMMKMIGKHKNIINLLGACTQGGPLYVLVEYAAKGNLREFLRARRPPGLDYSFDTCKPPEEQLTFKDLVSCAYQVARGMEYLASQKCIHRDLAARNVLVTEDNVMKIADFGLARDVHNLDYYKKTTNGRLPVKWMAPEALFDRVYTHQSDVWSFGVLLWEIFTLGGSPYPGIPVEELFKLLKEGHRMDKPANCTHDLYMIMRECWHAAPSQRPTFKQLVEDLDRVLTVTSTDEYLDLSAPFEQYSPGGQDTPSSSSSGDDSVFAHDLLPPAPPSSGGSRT
SMILES,IC50 [1],IC50 [2],FGFR1 Enz kobs [3],IC50 [4]
"COc1cc(-c2cnn(C3CN(C(=O)C4(F)CN(C(=O)/C=C/CN(C)C)C4)C3)c2C)cn2ncc(C#N)c12 [Example 160, (E)-6-(1-(1-(1-(4-(dimethylamino)but-2-enoyl)-3-fluoroazetidine-3-carbonyl)azetidin-3-yl)-5-methyl-1H-pyrazol-4-yl)-4-methoxypyrazolo [1,5-a]pyridine-3-carbonitrile]",16 nM,34 nM,0.00659 min⁻¹,481 nM
"C=CC(=O)N1CC(OC)(C(=O)N2CCC(n3nc(C)c(-c4cc(OC)c5c(C#N)cnn5c4)c3C)CC2)C1 [Example 95, 6-(1-(1-(1-acryloyl-3-methoxyazetidine-3-carbonyl)piperidin-4-yl)-3,5-dimethyl-1H-pyrazol-4-yl)-4-methoxypyrazolo[1,5-a]pyridine-3-carbonitrile]",26 nM,103 nM,0.00409 min⁻¹,98 nM
"C=CC(=O)N1CC(F)(C(=O)N2CCC(n3ncc(-c4cc(OC)c5c(C#N)cnn5c4)c3CC)CC2)C1 [Example 96, 6-(1-(1-(1-acryloyl-3-fluoroazetidine-3-carbonyl)piperidin-4-yl)-5-ethyl-1H-pyrazol-4-yl)-4-methoxypyrazolo[1,5-a]pyridine-3-carbonitrile]",73 nM,291 nM,0.00363 min⁻¹,351 nM
"C=CC(=O)N1CC(C(=O)N2CC3CC(C2)N3c2ccc(-c3cc(OC)c4c(C#N)cnn4c3)cn2)C1 [Example 105, 6-(6-(3-(1-acryloylazetidine-3-carbonyl)-3,6-diazabicyclo[3.1.1]heptan-6-yl)pyridin-3-yl)-4-methoxypyrazolo[1,5-a]pyridine-3-carbonitrile]",97 nM,125 nM,0.00042 min⁻¹,2660 nM
"COc1cc(-c2cnn(C3CCN(C(=O)C4(F)CN(C(=O)/C=C/C(F)(F)F)C4)CC3)c2C)cn2ncc(C#N)c12 [Example 155, (E)-6-(1-(1-(3-fluoro-1-(4,4,4-trifluorobut-2-enoyl)azetidine-3-carbonyl)piperidin-4-yl)-5-methyl-1H-pyrazol-4-yl)-4-methoxypyrazolo [1,5-a]pyridine-3-carbonitrile]",10 nM,11 nM,0.03227 min⁻¹,31 nM
"COc1cc(-c2cnn(C3CCN(C(=O)C4(C)CN(C(=O)/C=C/CN(C)C)C4)CC3)c2C)cn2ncc(C#N)c12 [Example 157, (E)-6-(1-(1-(1-(4-(dimethylamino)but-2-enoyl)-3-methylazetidine-3-carbonyl)piperidin-4-yl)-5-methyl-1H-pyrazol-4-yl)-4-methoxypyrazolo [1,5-a]pyridine-3-carbonitrile]",6 nM,18 nM,0.0025 min⁻¹,1150 nM
"C=CC(=O)N1CC(C(=O)N2CC3(C2)CN(c2ccc(-c4cc(OC)c5c(C#N)cnn5c4)cn2)C3)C1 [Example 104, 6-(6-(6-(1-acryloylazetidine-3-carbonyl)-2,6-diazaspiro[3.3]heptan-2-yl)pyridin-3-yl)-4-methoxypyrazolo[1,5-a]pyridine-3-carbonitrile]",12 nM,20 nM,0.00386 min⁻¹,146 nM

# The next lines start with the values.
IC50 [1],IC50 [2],FGFR1 Enz kobs [3],IC50 [4],SMILES
2 nM,3 nM,0.00202 min⁻¹,348 nM,"COc1cc(-c2cnn(C3CCN(C(=O)C4CN(C(=O)/C=C/CN5CC[C@H](F)C5)C4)CC3)c2)cn2ncc(C#N)c12 [Example 182, (S,E)-6-(1-(1-(1-(4-(3-fluoropyrrolidin-1-yl)but-2-enoyl)azetidine-3-carbonyl)piperidin-4-yl)-1H-pyrazol-4-yl)-4-methoxypyrazolo[1,5-a]pyridine-3-carbonitrile]"
2 nM,2 nM,0.01359 min⁻¹,16 nM,"C#CC(=O)N1CC(C(=O)N2CCC(n3cc(-c4cc(OC)c5c(C#N)cnn5c4)cn3)CC2)C1 [Example 138, 4-methoxy-6-(1-(1-(1-propioloylazetidine-3-carbonyl)piperidin-4-yl)-1H-pyrazol-4-yl)pyrazolo[1,5-a]pyridine-3-carbonitrile]"
2 nM,6 nM,0.04552 min⁻¹,45 nM,"COc1cc(-c2cnn(C3CCN(C(=O)C4CN(C(=O)/C=C/CBr)C4)CC3)c2)cn2ncc(C#N)c12 [Example 180, (E)-6-(1-(1-(1-(4-bromobut-2-enoyl)azetidine-3-carbonyl)piperidin-4-yl)-1H-pyrazol-4-yl)-4-methoxypyrazolo[1,5-a]pyridine-3-carbonitrile]"
4 nM,2 nM,0.00306 min⁻¹,96 nM,"COc1cc(-c2cnn(C3CCN(CC4CN(C(=O)/C=C/CN(C)C)C4)CC3)c2)cn2ncc(C#N)c12 [Example 146, (E)-6-(1-(1-((1-(4-(dimethylamino)but-2-enoyl)azetidin-3-yl)methyl)piperidin-4-yl)-1H-pyrazol-4-yl)-4-methoxypyrazolo [1,5-a]pyridine-3-carbonitrile]"
7 nM,16 nM,0.00338 min⁻¹,849 nM,"COc1cc(-c2cnn(C3CCN(C(=O)C4CN(C(=O)/C=C/CN(C)C)C4)CC3)c2C)cn2ncc(C#N)c12 [Example 152, (E)-6-(1-(1-(1-(4-(dimethylamino)but-2-enoyl)azetidine-3-carbonyl)piperidin-4-yl)-5-methyl-1H-pyrazol-4-yl)-4-methoxypyrazolo [1,5-a]pyridine-3-carbonitrile]"
53 nM,72 nM,0.00276 min⁻¹,384 nM,"C=CC(=O)N1CC(C(=O)N2CCC(n3cc(-c4cc(OC)c5c(C#N)cnn5c4)c(CC)n3)CC2)C1 [Example 97, 6-(1-(1-(1-acryloylazetidine-3-carbonyl)piperidin-4-yl)-3-ethyl-1H-pyrazol-4-yl)-4-methoxypyrazolo[1,5-a]pyridine-3-carbonitrile]"
25 nM,101 nM,0.00191 min⁻¹,171 nM,"C=CC(=O)N1CC(O)(C(=O)N2CCC(n3ncc(-c4cc(OC)c5c(Cl)cnn5c4)c3C)CC2)C1 [Example 172, 1-(3-(4-(4-(3-chloro-4-methoxypyrazolo [1,5-a]pyridin-6-yl)-5-methyl-1H-pyrazol-1-yl)piperidine-1-carbonyl)-3-hydroxyazetidin-1-yl)prop-2-en-1-one]"
7 nM,9 nM,0.00127 min⁻¹,52 nM,"C=CC(=O)N1CC(C(=O)N2CCC(n3cc(-c4cc(OC)c5c(Cl)cnn5c4)cn3)CC2)C1 [Example 122, 1-(3-(4-(4-(3-chloro-4-methoxypyrazolo[1,5-a]pyridin-6-yl)-1H-pyrazol-1-yl)piperidine-1-carbonyl)azetidin-1-yl)prop-2-en-1-one]"
4 nM,5 nM,0.00259 min⁻¹,592 nM,"COc1cc(-c2cnn(C3CCN(C(=O)C4CN(C(=O)/C=C/CN5CC[C@@H](F)C5)C4)CC3)c2)cn2ncc(C#N)c12 [Example 183, (R,E)-6-(1-(1-(1-(4-(3-fluoropyrrolidin-1-yl)but-2-enoyl)azetidine-3-carbonyl)piperidin-4-yl)-1H-pyrazol-4-yl)-4-methoxypyrazolo[1,5-a]pyridine-3-carbonitrile]"
